Measured values published in article PMC6321168, “Comparative Study on Excretive Characterization of Main Components in Herb Pair Notoginseng-Safflower and Single Herbs by LC–MS/MS” (Pharmaceutics, 2018).

Assay: Urinary excretion study in rats after oral NS, SF or CNS (LC–MS/MS)
Assay type: in vivo
Conditions: for concentration at 2 h / concentration at 4 h / concentration at 8 h / concentration at 12 h / concentration at 24 h / concentration at 36 h / concentration at 48 h / concentration at 72 h / concentration at 96 h / concentration at 120 h / concentration at 6 h: male, Sprague Dawley, rat, urine, oral; for Accumulative excretion amount / Accumulative excretion percentage / Excretion amount: rat urine
Procedure: The animal room was set at constant temperature of 20 ± 2 °C with humidity of 50 ± 20% and 12/12 h light/dark cycle.
Eighteen male rats were fasted for 12 h before starting the experiment. The rats were divided into three groups at random (n = 6) and received NS (60 mg/kg), SF (50 mg/kg), and NS (60 mg/kg) + SF (50 mg/kg), respectively, by oral gavage. The rats were placed in separate metabolic cages. The urine samples were collected at 0–2, 2–4, 4–6, 6–8, 8–12, 12–24, 24–36, 36–48, 48–72, 72–96, and 96–120 h. The feces samples were collected at 0–4, 4–8, 8–12, 12–24, 24–36, 36–48, 48–72, 72–96, and 96–120 h. The urine volume was recorded and the dry feces were measured for each collection period. Samples were stored at −80 °C until analysis.
An aliquot of 200 μL urine sample was mixed with 10 μL of IS and evaporated to dryness with a ZLS-2 vacuum centrifugal concentrator (Herexi Co., Ltd., Changsha, Hunan, China). The residue was reconstituted in 100 μL of 50% methanol vortexed for 2 min and centrifuged at 12,000 rpm for 15 min. Finally, a 1 μL aliquot was injected for LC–MS analysis.
Ultra fast liquid chromatography (UFLC) analysis was performed using a Shimadzu UFLC system (DGU-20A3R Degasser; LC-20AD pump; SIL-20AXR Autosampler; CTO-20AC Column Oven) (Nakagyo-Ku, Koyoto, Japan). […] Because of the different endogenous substances in the urine and feces samples, different elution gradients were used to alleviate the matrix effects for the analytes.
The mass spectrometric detection was performed on an ABSciex 4500 Qtrap mass spectrometer (ABSciex, Foster City, CA, USA) equipped with a negative electrospray ionization (ESI) interface using multiple reaction monitoring (MRM). The MS parameters were optimized under the selected ion monitoring conditions as follows: curtain gas, 35 psi; ionspray voltage, 4500 V; turbo gas temperature, 450 °C; GS1, 45 psi; GS2, 45 psi. All data were acquired and analyzed by Analyst software (Versions 1.6.2) from ABSciex.
The accumulative excretion percentage was calculated for each analyte as follows. Excretion at time (t) = [concentration of the analyte (ng/mL) at t] × total urine (or feces) volume (mL) at t. The cumulative excretion up to time t (mg) was expressed as a percent (%) cumulative excretion by dividing by the total amount of the analyte ingested (mg): % Cumulative Excretion = 100 × (Σt excretiont) total ingested.

concentration at 2 h (60 mg/kg, oral NS 60 mg/kg, 2 h): 3360 ± 7020 ng/mL
concentration at 4 h (60 mg/kg, oral NS 60 mg/kg, 4 h): 1680 ± 1800 ng/mL
concentration at 8 h (60 mg/kg, oral NS 60 mg/kg, 8 h): 1140 ± 1230 ng/mL
concentration at 12 h (60 mg/kg, oral NS 60 mg/kg, 12 h): 727 ± 171 ng/mL
concentration at 24 h (60 mg/kg, oral NS 60 mg/kg, 24 h): 135 ± 209 ng/mL
concentration at 36 h (60 mg/kg, oral NS 60 mg/kg, 36 h): 115 ± 151 ng/mL
concentration at 48 h (60 mg/kg, oral NS 60 mg/kg, 48 h): 100 ± 171 ng/mL
concentration at 72 h (60 mg/kg, oral NS 60 mg/kg, 72 h): 178 ± 382 ng/mL
concentration at 96 h (60 mg/kg, oral NS 60 mg/kg, 96 h): 85 ± 159 ng/mL
concentration at 120 h (60 mg/kg, oral NS 60 mg/kg, 120 h): 59 ± 105 ng/mL
concentration at 2 h (oral CNS 110 mg/kg, 2 h): 1510 ± 1440 ng/mL
concentration at 4 h (oral CNS 110 mg/kg, 4 h): 1690 ± 2340 ng/mL
concentration at 6 h (oral CNS 110 mg/kg, 6 h): 544 ± 216 ng/mL
concentration at 8 h (oral CNS 110 mg/kg, 8 h): 835 ± 697 ng/mL
concentration at 12 h (oral CNS 110 mg/kg, 12 h): 789 ± 937 ng/mL
concentration at 24 h (oral CNS 110 mg/kg, 24 h): 2350 ± 5830 ng/mL
concentration at 36 h (oral CNS 110 mg/kg, 36 h): 228 ± 361 ng/mL
concentration at 48 h (oral CNS 110 mg/kg, 48 h): 65 ± 82 ng/mL
concentration at 72 h (oral CNS 110 mg/kg, 72 h): 93 ± 156 ng/mL
concentration at 96 h (oral CNS 110 mg/kg, 96 h): 46 ± 53 ng/mL
concentration at 120 h (oral CNS 110 mg/kg, 120 h): 80 ± 174 ng/mL
concentration at 6 h (oral NS 60 mg/kg, 6 h): 1440 ± 1460 ng/mL
Accumulative excretion amount (oral CNS 110 mg/kg, 2 h): 1.881 ± 1.001 µg
Accumulative excretion percentage (oral CNS 110 mg/kg, 2 h): 0.066±0.032%
Excretion amount (oral CNS 110 mg/kg, 2 h): 1.881 ± 1.001 µg
Accumulative excretion amount (oral CNS 110 mg/kg, 4 h): 3.382 ± 2.188 µg
Accumulative excretion percentage (oral CNS 110 mg/kg, 4 h): 0.111±0.072%
Excretion amount (oral CNS 110 mg/kg, 4 h): 2.002 ± 1.609 µg
Accumulative excretion amount (oral CNS 110 mg/kg, 6 h): 3.994 ± 2.061 µg
Accumulative excretion percentage (oral CNS 110 mg/kg, 6 h): 0.132±0.073%
Excretion amount (oral CNS 110 mg/kg, 6 h): 0.816 ± 0.264 µg
Accumulative excretion amount (oral CNS 110 mg/kg, 8 h): 4.725 ± 2.486 µg
Accumulative excretion percentage (oral CNS 110 mg/kg, 8 h): 0.155±0.084%
Excretion amount (oral CNS 110 mg/kg, 8 h): 1.169 ± 0.913 µg
Accumulative excretion amount (oral CNS 110 mg/kg, 12 h): 5.430 ± 2.374 µg
Accumulative excretion percentage (oral CNS 110 mg/kg, 12 h): 0.188±0.080%
Excretion amount (oral CNS 110 mg/kg, 12 h): 0.805 ± 0.300 µg
Accumulative excretion amount (oral CNS 110 mg/kg, 24 h): 8.052 ± 5.572 µg
Accumulative excretion percentage (oral CNS 110 mg/kg, 24 h): 0.263±0.182%
Excretion amount (oral CNS 110 mg/kg, 24 h): 2.622 ± 5.710 µg
Accumulative excretion amount (oral CNS 110 mg/kg, 36 h): 8.388 ± 5.927 µg
Accumulative excretion percentage (oral CNS 110 mg/kg, 36 h): 0.274±0.195%
Excretion amount (oral CNS 110 mg/kg, 36 h): 0.336 ± 0.421 µg
Accumulative excretion amount (oral CNS 110 mg/kg, 48 h): 8.689 ± 6.056 µg
Accumulative excretion percentage (oral CNS 110 mg/kg, 48 h): 0.285±0.202%
Excretion amount (oral CNS 110 mg/kg, 48 h): 0.301 ± 0.361 µg
Accumulative excretion amount (oral CNS 110 mg/kg, 72 h): 8.87 ± 6.051 µg
Accumulative excretion percentage (oral CNS 110 mg/kg, 72 h): 0.293±0.206%
Excretion amount (oral CNS 110 mg/kg, 72 h): 0.185 ± 0.312 µg
Accumulative excretion amount (oral CNS 110 mg/kg, 96 h): 8.966 ± 6.090 µg
Accumulative excretion percentage (oral CNS 110 mg/kg, 96 h): 0.292±0.204%
Excretion amount (oral CNS 110 mg/kg, 96 h): 0.091 ± 0.106 µg
Accumulative excretion amount (oral CNS 110 mg/kg, 120 h): 9.027 ± 6.117 µg
Accumulative excretion percentage (oral CNS 110 mg/kg, 120 h): 0.292±0.206%
Excretion amount (oral CNS 110 mg/kg, 120 h): 0.061 ± 0.081 µg
Accumulative excretion amount (oral NS 60 mg/kg, 2 h): 4.985 ± 1.411 µg
Accumulative excretion percentage (oral NS 60 mg/kg, 2 h): 0.142±0.045%
Excretion amount (oral NS 60 mg/kg, 2 h): 4.985 ± 1.411 µg
Accumulative excretion amount (oral NS 60 mg/kg, 4 h): 6.610 ± 2.052 µg
Accumulative excretion percentage (oral NS 60 mg/kg, 4 h): 0.193±0.061%
Excretion amount (oral NS 60 mg/kg, 4 h): 2.844 ± 0.973 µg
Accumulative excretion amount (oral NS 60 mg/kg, 6 h): 9.709 ± 2.893 µg
Accumulative excretion percentage (oral NS 60 mg/kg, 6 h): 0.285±0.086%
Excretion amount (oral NS 60 mg/kg, 6 h): 3.616 ± 2.575 µg
Accumulative excretion amount (oral NS 60 mg/kg, 8 h): 11.931 ± 4.568 µg
Accumulative excretion percentage (oral NS 60 mg/kg, 8 h): 0.348±0.137%
Excretion amount (oral NS 60 mg/kg, 8 h): 3.890 ± 2.477 µg
Accumulative excretion amount (oral NS 60 mg/kg, 12 h): 15.061 ± 7.022 µg
Accumulative excretion percentage (oral NS 60 mg/kg, 12 h): 0.439±0.200%
Excretion amount (oral NS 60 mg/kg, 12 h): 3.130 ± 2.715 µg
Accumulative excretion amount (oral NS 60 mg/kg, 24 h): 15.697 ± 7.182 µg
Accumulative excretion percentage (oral NS 60 mg/kg, 24 h): 0.451±0.202%
Excretion amount (oral NS 60 mg/kg, 24 h): 0.636 ± 0.590 µg
Accumulative excretion amount (oral NS 60 mg/kg, 36 h): 16.042 ± 7.062 µg
Accumulative excretion percentage (oral NS 60 mg/kg, 36 h): 0.463±0.204%
Excretion amount (oral NS 60 mg/kg, 36 h): 0.402 ± 0.338 µg
Accumulative excretion percentage (oral NS 60 mg/kg, 48 h): 0.465±0.204%
Excretion amount (oral NS 60 mg/kg, 48 h): 0.285 ± 0.276 µg
Accumulative excretion amount (oral NS 60 mg/kg, 72 h): 16.417 ± 7.147 µg
Accumulative excretion percentage (oral NS 60 mg/kg, 72 h): 0.476±0.208%
Excretion amount (oral NS 60 mg/kg, 72 h): 0.091 ± 0.014 µg
Excretion amount (oral NS 60 mg/kg, 96 h): 0.062 ± 0.110 µg
Excretion amount (oral NS 60 mg/kg, 120 h): 0.062 ± 0.148 µg
SMILES: CC(C)=CCC[C@](C)(O[C@@H]1O[C@H](CO)[C@@H](O)[C@H](O)[C@H]1O)[C@H]1CC[C@]2(C)[C@@H]1[C@H](O)C[C@@H]1[C@@]3(C)CC[C@H](O)C(C)(C)[C@@H]3[C@@H](O[C@@H]3O[C@H](CO)[C@@H](O)[C@H](O)[C@H]3O)C[C@]12C [ginsenoside Rg1]
